# Assay results reported in patent publication US5734012A, “Cyclic motilin-like polypeptides with gastrointestinal motor stimulating activity” (Ohmeda Pharmaceutical Products Division Inc., priority 1996, dated 1998).
# Where two headings read alike, the source gives them in different places. Positions of bridges follow the written chain, without caps; N, C: chain ends. Non-standard residues stand in square brackets, D forms with d. Residues, ends and D or L forms follow the SMILES beside them. *: point of attachment. X1 = C[N+](C)(C)[C@@H](Cc1ccccc1)C(=O)*; NMeF = CN[C@@H](Cc1ccccc1)C(=O)O; dNMeF = CN[C@H](Cc1ccccc1)C(=O)O
# Columns and labels:
# motilin receptor = target: T1, motilin receptor (Oryctolagus cuniculus, UniProt G1T803); assay: Motilin receptor binding affinity (displacement of [125I-Tyr7,Nle13]motilin(porcine)); parameters: species or system rabbit
# T1 construct: from tissue; host or cells: rabbit antral smooth muscle membranes
# Description: The motilin receptor binding affinity of the peptides of this invention was determined by using the general procedure of Bormans, Peeters and Vantrappen, Regul. […] Fitting was performed using the iterative least-squares procedure of the SAS-software package (SAS Institute, Inc., Cary, N.C., USA).
# [1] = target: rabbit duodenal smooth muscle strip (Oryctolagus cuniculus, UniProt G1T803); assay: Rabbit duodenal smooth muscle strip tissue bath assay (contractility); format: cell-based; settings: negative logarithm of dose giving 50% of maximal response to motilin; isotonic contraction of rabbit duodenum segments
# Description: The experimental protocol consisted of an equilibration period of 1 hour; a challenge with 10^-4 M acetylcholine followed by a wash-out period; a cumulative dose-response curve of a compound with, at the end, the addition of 10^-7 M motilin; and finally 10^-4 M acetylcholine. If the final response to 10^-4 M acetylcholine differed by more than 5% from the initial response, the results were discarded.
# [2] = In vitro stability testing in 2% hog kidney homogenate; format: in vitro ADME; settings: for half-life at 0.5 mg/ml: pig, kidney or brush border membranes
# Description: Like most small linear polypeptides, motilin is believed to be metabolized by the brush border cells of the kidney. Therefore, kidney homogenate was chosen as the model system for assessing the relative in vivo biostability of the peptides of this invention. All peptides to be studied were incubated in hog kidney (Pel Freeze, Inc., Rogers, Ark.) (2% w/v; final volume=4 mls; buffer=HEPES pH 7.0) at 25° C. […] In order to determine suitable incubation times and sampling intervals, two experiments were conducted with each polypeptide. The first run served as a rough estimate of peptide stability. All sampling was performed in duplicate. Sample volume was 180 μl. Sample clean-up was performed by addition of 20 μl of 100% TCA (final volume=200 μl; final TCA concentration=10%). The sample was vortexed from 5 to 10 seconds to ensure equilibration, then centrifuged to spin out the precipitated proteins. Analysis was carried out on a Waters HPLC system with autoinjector, a 5 μVydac C-18 analytical column, and a Waters 481 UV detector set at 214 nm. Injection volume was 80 μl. Initial solvent conditions were 20% acetonitrile / 80% (0.1%) TFA in Milli-Q water with a 35 minute gradient running to 63% acetonitrile / 37% (0.1%) TFA at 1 ml/min. Polypeptide substrate and metabolite peaks were ratioed to the internal standard and the duplicate sample ratios were averaged. The average ratio for the peptide substrate was expressed as a percentage and plotted versus time. First-order kinetics was assumed for data treatment. The rate of disappearance of the substrate was calculated using the Enzfitter program (Biosoft). Relative half-lives were determined from the relationship: […]
# [3] = negative logarithm of concentration displacing 50% of [125I-Tyr7,Nle13]motilin(porcine) bound to rabbit antral smooth muscle membranes, read-out: pIC50 (converted)
# T1 sequence (G1T803 1-400): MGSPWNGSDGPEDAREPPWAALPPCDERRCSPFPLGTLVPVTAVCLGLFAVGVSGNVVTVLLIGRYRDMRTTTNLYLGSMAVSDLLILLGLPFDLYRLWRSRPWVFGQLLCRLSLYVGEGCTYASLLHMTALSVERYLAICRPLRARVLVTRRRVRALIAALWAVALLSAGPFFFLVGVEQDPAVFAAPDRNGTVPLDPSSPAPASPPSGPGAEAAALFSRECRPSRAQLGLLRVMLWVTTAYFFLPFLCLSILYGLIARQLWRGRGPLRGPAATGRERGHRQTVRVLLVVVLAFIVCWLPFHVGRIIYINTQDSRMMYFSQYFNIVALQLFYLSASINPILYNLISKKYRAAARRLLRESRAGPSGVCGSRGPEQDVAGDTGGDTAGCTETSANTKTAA
# rabbit duodenal smooth muscle strip, sequence (G1T803 1-400): as above
IC50 (motilin receptor; [3]) [nM],pEC50 [1],Compound,further results
0.575,7.95,"CC[C@H](C)[C@H](NC(=O)[C@@H]1CCCN1C(=O)[C@@H](NC(=O)[C@H](Cc1ccccc1)NC)C(C)C)C(=O)N[C@@H](Cc1ccccc1)C(=O)N[C@H](C(=O)N[C@@H](Cc1ccc(O)cc1)C(=O)NCC(=O)N[C@@H](CCC(=O)O)C(=O)N[C@H]1CC(=O)NCCCC[C@@H](C(N)=O)NC(=O)[C@H](CC(C)C)NC(=O)[C@H](CCCNC(=N)N)NC(=O)[C@H](C)NC1=O)[C@@H](C)O [SEQ ID NO:17, cyclo^10,14 [N-MePhe^1,Asp^10,Ala^11,Leu^13,Lys^14]pMOT(1-14) amide] (H-[NMeF]VPIFTYGEDARLK-NH2; lactam 10-14)",half-life at 0.5 mg/ml ([2]; pH 7): 31 min
5.5,6.87,"CC[C@H](C)[C@H](NC(=O)[C@@H]1CCCN1C(=O)[C@@H](NC(=O)[C@@H](Cc1ccccc1)NC)C(C)C)C(=O)N[C@@H](Cc1ccccc1)C(=O)N[C@H](C(=O)N[C@@H](Cc1ccc(O)cc1)C(=O)NCC(=O)N[C@@H](CCC(=O)O)C(=O)N[C@H]1CCC(=O)NCCCC[C@@H](C(N)=O)NC(=O)[C@H](CC(C)C)NC(=O)[C@H](CCCNC(=N)N)NC(=O)[C@H](CCC(N)=O)NC1=O)[C@@H](C)O [SEQ ID NO:13, cyclo^10,14 [N-Me-D-Phe^1,Glu^10,Leu^13,Lys^14 pMOT(1-14) amide] (H-[dNMeF]VPIFTYGEEQRLK-NH2; lactam 10-14)",
11.5,7.89,"CC[C@H](C)[C@H](NC(=O)[C@@H]1CCCN1C(=O)[C@@H](NC(=O)[C@H](Cc1ccccc1)NC)C(C)C)C(=O)N[C@@H](Cc1ccccc1)C(=O)N[C@H](C(=O)N[C@@H](Cc1ccc(O)cc1)C(=O)NCC(=O)N[C@@H](CCC(=O)O)C(=O)N[C@H]1CC(=O)NCCCC[C@@H](C(N)=O)NC(=O)[C@H](CC(C)C)NC(=O)[C@@H](CCCNC(=N)N)NC(=O)[C@H](C)NC1=O)[C@@H](C)O [SEQ ID NO:23, cyclo^10,14 [N-MePhe^1,Asp^10,Ala^11,D-Arg^12,Leu^13,Lys^14]pMOT(1-14) amide] (H-[NMeF]VPIFTYGEDA[dR]LK-NH2; lactam 10-14)",
1.51,7.77,"CC[C@H](C)[C@H](NC(=O)[C@@H]1CCCN1C(=O)[C@@H](NC(=O)[C@@H](N)Cc1ccccc1)C(C)C)C(=O)N[C@@H](Cc1ccccc1)C(=O)N[C@H](C(=O)N[C@@H](Cc1ccc(O)cc1)C(=O)NCC(=O)N[C@@H](CCC(=O)O)C(=O)N[C@H]1CC(=O)NCCCC[C@@H](C(N)=O)NC(=O)[C@H](CC(C)C)NC(=O)[C@H](CCCNC(=N)N)NC(=O)[C@H](CCC(N)=O)NC1=O)[C@@H](C)O [SEQ ID NO:6, cyclo^10,14 [Asp^10, Leu^13, Lys^14]pMOT(1-14)] (H-FVPIFTYGEDQRLK-NH2; lactam 10-14)",
,7.38,"CC[C@H](C)[C@H](NC(=O)[C@@H]1CCCN1C(=O)[C@@H](NC(=O)[C@H](Cc1ccccc1)[N+](C)(C)C)C(C)C)C(=O)N[C@@H](Cc1ccccc1)C(=O)N[C@H](C(=O)N[C@@H](Cc1ccc(O)cc1)C(=O)NCC(=O)N[C@@H](CCC(=O)O)C(=O)N[C@H]1CCC(=O)NCCCC[C@@H](C(N)=O)NC(=O)[C@H](CC(C)C)NC(=O)[C@H](CCCNC(=N)N)NC(=O)[C@H](CCC(N)=O)NC1=O)[C@@H](C)O [SEQ ID NO:14, cyclo^10,14 [Me3 N^+ Phe^1,Glu^10,Leu^13,Lys^14]pMOT(1-14) amide] (X1-VPIFTYGEEQRLK-NH2; lactam 9-13)",T1/2 ([2]; pH 7): > 200 min
12.6,7.02,"CC[C@H](C)[C@H](NC(=O)[C@@H]1CCCN1C(=O)[C@@H](NC(=O)[C@H](Cc1ccccc1)[N+](C)(C)C)C(C)C)C(=O)N[C@@H](Cc1ccccc1)C(=O)N[C@H](C(=O)N[C@@H](Cc1ccc(O)cc1)C(=O)NCC(=O)N[C@@H](CCC(=O)O)C(=O)N[C@H]1CC(=O)NCCCC[C@@H](C(N)=O)NC(=O)[C@H](CC(C)C)NC(=O)[C@@H](CCCNC(=N)N)NC(=O)[C@H](C)NC1=O)[C@@H](C)O [SEQ ID NO:24, cyclo^10,14 [Me3 N^+ Phe^1,Asp^10,Ala^11,D-Arg^12,Leu^13,Lys^14]pMOT(1-14) amide] (X1-VPIFTYGEDA[dR]LK-NH2; lactam 9-13)",

# The next lines start with the molecule.
Compound,IC50 (motilin receptor; [3]) [nM],pEC50 [1],further results
"CC[C@H](C)[C@H](NC(=O)[C@@H]1CCCN1C(=O)[C@@H](NC(=O)[C@@H](N)Cc1ccccc1)C(C)C)C(=O)N[C@@H](Cc1ccccc1)C(=O)N[C@H](C(=O)N[C@@H](Cc1ccc(O)cc1)C(=O)NCC(=O)N[C@@H](CCC(=O)O)C(=O)N[C@@H](CC(C)C)C(=O)N[C@@H](CCC(N)=O)C(=O)N[C@@H](CCCN=C(N)N)C(=O)N[C@@H](CC(C)C)C(=O)N[C@@H](CCC(N)=O)C(=O)N[C@@H](CCC(=O)O)C(=O)N[C@@H](CCCCN)C(=O)N[C@@H](CCC(=O)O)C(=O)N[C@@H](CCCN=C(N)N)C(=O)N[C@@H](CC(N)=O)C(=O)N[C@@H](CCCCN)C(=O)NCC(=O)N[C@@H](CCC(N)=O)C(=O)O)[C@@H](C)O [SEQ ID NO:3, [Leu^13]pMOT(1-22), reference compound] (H-FVPIFTYGELQRLQEKERNKGQ-OH)",,,"half-life at 0.5 mg/ml ([2]; 2% w/v hog kidney homogenate, HEPES pH 7.0, 25° C., 0.5 mg/ml substrate, first-order kinetics, read-out: T1/2): 30.2 min"
"CC[C@H](C)[C@H](NC(=O)[C@@H]1CCCN1C(=O)[C@@H](NC(=O)[C@H](Cc1ccccc1)NC)C(C)C)C(=O)N[C@@H](Cc1ccccc1)C(=O)N[C@H](C(=O)N[C@@H](Cc1ccc(O)cc1)C(=O)NCC(=O)N[C@@H](CCC(=O)O)C(=O)N[C@H]1CCC(=O)NCCCC[C@@H](C(=O)N[C@@H](CCCCN)C(N)=O)NC(=O)[C@H](CC(C)C)NC(=O)[C@H](CCCNC(=N)N)NC(=O)[C@H](C)NC1=O)[C@@H](C)O [SEQ ID NO:10, cyclo^10,14 [N-MePhe^1,Glu^10,Ala^11,Leu^13,Lys^14,Lys^15]pMOT(1-15) amide] (H-[NMeF]VPIFTYGEEARLKK-NH2; lactam 10-14)",0.631,7.96,half-life at 0.5 mg/ml ([2]; pH 7): 21 min
"CC[C@H](C)[C@H](NC(=O)[C@@H]1CCCN1C(=O)[C@@H](NC(=O)[C@@H](N)Cc1ccccc1)C(C)C)C(=O)N[C@@H](Cc1ccccc1)C(=O)N[C@H](C(=O)N[C@@H](Cc1ccc(O)cc1)C(=O)NCC(=O)N[C@@H](CCC(=O)O)C(=O)N[C@@H](CC(C)C)C(=O)N[C@@H](CCC(N)=O)C(=O)N[C@@H](CCCNC(=N)N)C(=O)N[C@@H](CC(C)C)C(=O)N[C@@H](CCC(N)=O)C(=O)O)[C@@H](C)O [SEQ ID NO:27, [Leu^13]pMOT(1-14), reference compound] (H-FVPIFTYGELQRLQ-OH; N-terminus and C-terminus assumed)",,,half-life at 0.5 mg/ml ([2]; pH 7): 7.5 min
"CC[C@H](C)[C@H](NC(=O)[C@@H]1CCCN1C(=O)[C@@H](NC(=O)[C@H](Cc1ccccc1)NC)C(C)C)C(=O)N[C@@H](Cc1ccccc1)C(=O)N[C@H](C(=O)N[C@@H](Cc1ccc(O)cc1)C(=O)NCC(=O)N[C@@H](CCC(=O)O)C(=O)N[C@H]1CC(=O)NCCCC[C@@H](C(=O)N[C@@H](CCCCN)C(N)=O)NC(=O)[C@H](CC(C)C)NC(=O)[C@H](CCCNC(=N)N)NC(=O)[C@H](C)NC1=O)[C@@H](C)O [SEQ ID NO:8, cyclo^10,14 [N-MePhe^1,Asp^10,Ala^11,Leu^13,Lys^14,Lys^15]pMOT(1-15) amide] (H-[NMeF]VPIFTYGEDARLKK-NH2; lactam 10-14)",1.1,7.69,
"CC[C@H](C)[C@H](NC(=O)[C@@H]1CCCN1C(=O)[C@@H](NC(=O)[C@H](Cc1ccccc1)NC)C(C)C)C(=O)N[C@@H](Cc1ccccc1)C(=O)N[C@H](C(=O)N[C@@H](Cc1ccc(O)cc1)C(=O)NCC(=O)N[C@@H](CCC(=O)O)C(=O)N[C@H]1CC(=O)NCCCC[C@@H](C(=O)N[C@H](CCCCN)C(N)=O)NC(=O)[C@H](CC(C)C)NC(=O)[C@H](CCCNC(=N)N)NC(=O)[C@H](C)NC1=O)[C@@H](C)O [SEQ ID NO:9, cyclo^10,14 [N-MePhe^1,Asp^10,Ala^11,Leu^13,Lys^14,D-Lys^15]pMOT(1-15) amide] (H-[NMeF]VPIFTYGEDARLK[dK]-NH2; lactam 10-14)",,7.89,IC50 (motilin receptor): 0.661 nM
